Here are results for five substances from patent publication US4481191A, “Method for controlling blood pressure” (The Regents of the University of California, priority 1983, dated 1984).

For one experiment, the system named is mouse vas deferens. The settings on record: cited from earlier work.
A further experiment relates to guinea pig ileum. The settings on record: cited from earlier work.
The next experiment relates to mice. Conditions: studies with mice; cited from earlier work.
In experiment [1] the test system is visceral afferent receptors. As to the kind of experiment: Sensitivity to morphine sulfate-induced bradycardia after subcutaneous pretreatment (FIG. 1). The settings on record: rats; for effect of prior administration on sensitivity to morphine sulfate bradycardia (ED50 of morphine sulfate for greater than 10% fall in heart rate): subcutaneously 30 minutes before testing with morphine sulfate. It is filed as in vivo, rat. The source says:
Turning to FIG. 1, the ordinate thereof represents the ED50 of morphine sulfate for producing a greater than 10% fall in heart rate in rats, and serves as an index of the sensitivity of the animal to the drug. Morphine sulfate functions as a "challenge" drug for producing bradycardia, and is a traditional standard for comparison. Lower ED50 values mean that the visceral afferent receptors are more sensitive. The abscissa of FIG. 1 represents doses of dynorphin(1-13) and Leu-enkephalin, respectively, in units of micromoles per kg body weight administered subcutaneously 30 minutes before testing with morphine sulfate.
The experiments for which the data is illustrated by FIGS. 1 and 2 were conducted on male Sprague-Dawley rats weighing 250-350 g. Animals were kept under a 12-hour light-dark cycle with food and water available ad libitum. Each rat was used only once. Procedures of infusion of chemicals into the brain and for measurement of heart rate were as reported by Wei, et al., Life Science, supra, and Wei, J. Pharmacol. Exp. Ther. 21b: 12-18 (1981).
The median effective dose of drugs (ED50) for producing bradycardia was determined in animals anesthetized with 2.5% urethane solution in saline, administered 1.25 g/kg i.p. Drugs, dissolved in distilled water, were injected intravenously into a cannulated femoral vein in a volume of 0.05 ml/100 gm body weight delivered over a period of less than 3 seconds. The pH of the solutions ranged from 5.8 to 6.8 units. The blood pressure was obtained from the left cannulated carotid artery. A Narcobiosystems type 7302 cardiotachometer couple was used to integrate heart rate from the individual oscillations in blood pressure due to the heart beat, and heart rate was recorded on a polygraph recorder. The baseline heart rate (HR1) was defined as the lowest rate observed in the two minutes before drug administration. The magnitude of the change in heart rate was calculated as [(HR2 -HR1)/HR1 ]×100%, with the second heart rate (HR2) measured as the lowest rate observed in the three minutes after drug injection. […]

For experiment [2] the following is noted: synthetic product; cited from earlier work.
The next experiment relates to rats. The settings on record: administered intravenously (i.v.); Wei et al., Life Sciences; cited from earlier work.

Take Dynorphin: the agonist properties result in the experiment with mouse vas deferens and with guinea pig ileum was “potent agonist properties” in each case.
Regarding dynorphin(1-13), the analgesia entry with mice is “relatively weak in producing analgesia”. In experiment [1] (subcutaneously 30 minutes before morphine sulfate), the “activity in enhancing sensitivity relative to Leu-enkephalin” value is “about 5 times”. In addition, in experiment [1], the “effect of prior administration on sensitivity to morphine sulfate bradycardia (ED50 of morphine sulfate for greater than 10% fall in heart rate)” value is on record as “enhances sensitivity”. Further, the “potency in bioassays versus the naturally occurring peptide” value in experiment [2] is recorded as “as potent in bioassays as the naturally occuring peptide”.
In the case of Leu-enkephalin, the “median effective dose (ED50) for lowering of heart rate and blood pressure” value with rats is 1.5 µmol/kg. Also, in experiment [1], the “effect of prior administration on sensitivity to morphine sulfate bradycardia (ED50 of morphine sulfate for greater than 10% fall in heart rate)” value was “enhances sensitivity”.
For the substance “beta-endorphin: endogenous opioid peptide”, the “median effective dose (ED50) for lowering of heart rate and blood pressure” value with rats was 0.07 µmol/kg.
With methionine-enkephalin, the “median effective dose (ED50) for lowering of heart rate and blood pressure” value in the experiment with rats was 1.3 µmol/kg.
